Assays:
Phospho-p90RSK (S380) = assay: Cellular substrate phosphorylation (Western blotting), Erk →pRsk; assay type: cell-based, human; settings: for inhibition at 50 µM: Homo sapiens, 5 h; for inhibition of phospho-Rsk / Raf-Mek-Erk pathway, in words: Western blotting, concentrations of 5-50 μM
Method: (§1) This method enables a statement of whether the kinase modulator investigated achieves the desired effect in a cellular context too, i.e., in this case, a substrate protein downstream of the target kinase is examined for its phosphorylation status. To this end, the cells incubated with substance are lysed and the overall protein is separated on a reducing polyacrylamide gel. Subsequently, the proteins are transferred to a PVDF membrane by Western blotting and the substrate bands sought are made visible with specific antibodies and a suitable detection method. The substrate proteins down-stream of the target kinases are detected simultaneously with an anti-phospho antibody which is specific in each case and a total antibody which recognizes the substrate total protein. The duplex technology of the ODYSSEY imager (LiCOR) enables this simultaneous measurement. The intensity of the total substrate bands is employed to normalize and quantify the phosphorylation inhibition or activation.
(§2) Suitable tumor cell lines (e.g. BxPC3, Hct116 or MDA MB468) were seeded into 6-well microtitre plates in a defined cell count (e.g. 350 000 cells/well for BxPC3 and Hct116) in the particular standard complete media and then incubated overnight at 37° C., 5% CO2 and 95% air humidity. Afterwards, the cells were incubated for 24 h under serum-reduced conditions, i.e. in the particular medium except at only 0.25% serum. The test substances were made up as stock solutions (10 mM) in DMSO and incubated with the cells at final concentrations of 5, 15.8 and 50 μM for 5 h. This was followed by cell lysis in 25 mM Tris, 150 mM NaCl, 10 mM sodium pyrophosphate, 2 mM EGTA, 25 mM beta-glycerophosphate, 25 mM NaF, 10% glycerol, 0.75% NP-40, 100 μM NaVO4 buffer. After protein quantification using the BCA (bicinchonic acid protein assay kit, Sigma) assay, amounts of protein of about 20 μg per track were separated on a Lämmli polyacrylamide gel and then transferred onto a PVDF membrane (Millipore) by semi-dry Western blotting at 0.8 mA/cm^2 for 1 h. This was followed by prehybridization of the membrane for 1 hour in I-block reagent (Applied Biosystems) and overnight simultaneous incubation with the specific antibodies. […] After the membrane had been washed, the secondary antibodies were incubated with anti-rabbit IR Dye 800 (#611-732-127, Rockland) for the phospho antibodies and anti-goat Alexa Fluor 680 (#A-21081, […]) for the total protein antibodies. After incubation for 30 min at room temperature in the dark, the hybridization of the detection antibody was detected on the membrane by scanning in an ODYSSEY imager (LiCOR).

MDA-MB468 = assay: XTT assay, anti-proliferative activity, MDA-MB468; assay type: cell-based; settings: Homo sapiens, MDA-MB-468; 45 h incubation
Method: (§3) The principle of this test is based on the intracellular reduction of the tetrazolium dye XTT (sodium 3′-[1-(phenylaminocarbonyl)-3,4-tetrazolium]bis(4-methoxy-6-nitro)benzenesulphonic acid, Sigma) to a formazan dye by mitochondrial dehydrogenases. The dye is formed only by metabolically active cells. Its photometrically measurable intensity is a quantitative indicator for the presence of living cells. The reduction in the dye formation as a result of incubation of the cells with substances serves as a parameter for the anti-proliferative activity.
(§4) The tumour cell lines (ATCC) were seeded in 96-well microtitre plates in a defined cell count (5000 cells/well for Hct116; 10000 cells/well for MDA MB468), and incubated overnight at 37° C., 5% CO2 and 95% air humidity. The test substances were made up as stock solutions (10 mM) in DMSO. […] The cell plates were then incubated for 45 h at 37° C., 5% CO2 and 95% air humidity.
(§5) For the detection reaction, the XTT substrate was mixed with PMS (N-methyldibenzopyrazine methylsulphate, Sigma) and added to the cells, to result in a final concentration of 325 μg of XTT/ml and 2.5 μg PMS/ml. The mixture was then incubated for 3 h at 37° C., 95% air humidity. Subsequently the formazan salt formed by cellular dehydrogenases was quantified at an absorption of 490 nm.
(§6) The evaluation of the % inhibition values was done by means of the following formula from the values for the optical densities measured in each case at 490 nm:
(§7) The controls were determined 8 fold, the substance samples 2 fold. 0% control contained no cells and the 100% control contained no test substance. The EC50 values were determined with GraphPadPrism.

p38alpha = p38alpha (Homo sapiens, UniProt Q16539); assay: Cell-free kinase assay (ALPHA technology) p38alpha; assay type: biochemical; settings: 10 μM ATP
Method: (§8) The inhibitory effect of the compounds of the invention was tested on various human serine/threonine kinases, tyrosine kinases and lipid kinases in enzymatic assays. Recombinant human kinases, for example PI3Kalpha, -beta, -gamma, -delta, Erk2, p38alpha, p38gamma, Jnk1, Jnk2 and others were used, in some cases as full-length kinases, in some cases as truncated fragments—but at least consisting of the functional kinase domains. The commercial kinase proteins (Proqinase, Upstate) were used as recombinant fusion proteins with GST (glutathione S-transferase) tag or His tag. Depending on the substrate type, the different kinase reactions were quantified by suitable ALPHA™ beads (PerkinElmer).
(§9) The kinase assays for PI3K and Erk are described in detail and selected test results are cited below. […] Subsequently, the kinase reaction was stopped by adding the ALPHA bead mix (10 μg/ml, #6760603/PerkinElmer), preincubated with 1 nM GST:Grp1 fusion protein (Upstate) and […] (#C-39B6/Echelon) in 50 mM Hepes, 50 mM NaCl, 50 mM EDTA and 0.1% BSA, and left to stand overnight. • b) Erk2-ALPHA: The test substance, 0.625 ng of Erk2 (#14-173, Upstate), 10 μM ATP and 15 nM biotinylated MBP (myelin basic protein) substrate were incubated on a 384-well Optiplate (Perkin Elmer) in a volume of 15 μl for 1 h in 25 mM Tris, 10 mM MgCl2, 0.1% Tween-20, 100 μM NaVO4, 2 mM DTT at pH 7.5. The kinase reaction was stopped by adding 10 μl of the ALPHA bead mix (10 μg/ml, #6760617/PerkinElmer), pre-incubated with anti-phospho MBP antibody (320 pM, #05-429/Upstate), in 25 mM Tris, 200 mM NaCl, 100 mM EDTA and 0.3% BSA, and left to stand overnight.
(§10) The luminiscence was detected the next morning in a Fusion™ alpha instrument (Perkin Elmer).
(§11) The calculation of % inhibition values per substance concentration was done by means of the following formula from the raw data determined in the Fusion™ alpha:
(§12) The controls were determined 8 fold and the substance samples 2 fold. 0% control contained neither any ATP nor any substrate. The 100% control contained no test substance. The IC50 values were determined with GraphPadPrism.

Jnk1 + Jnk2 = tested on: T1, Jnk1 + Jnk2; assay: Cell-free kinase assay (ALPHA technology) Jnk1 + Jnk2; assay type: biochemical, human; settings: 10 μM ATP
T1 construct: fused on or other part: GST tag or His tag (commercial recombinant fusion proteins from Proqinase or Upstate)
Method: as §8, §9, §10, §11, §12

Phospho-Akt (Ser 473) = assay: Cellular substrate phosphorylation (Western blotting), PI3K →pAkt; assay type: cell-based, human; settings: for inhibition at 50 µM: Homo sapiens, 5 h; for inhibition of cellular phospho-Akt / PI3K-Akt pathway, in words: Western blotting, concentrations of 5-50 μM
Method: as §1, §2

Hct116 = assay: XTT assay, anti-proliferative activity, Hct116; assay type: cell-based; settings: Homo sapiens, HCT-116; 45 h incubation
Method: as §3, §4, §5, §6, §7

Erk2 = target: T2, Erk2 (Mus musculus, UniProt P63085); assay: Cell-free kinase assay Erk2-ALPHA; assay type: biochemical, human; settings: 10 μM ATP
T2 construct: purchased Upstate #14-173
Method: as §8, §9, §10, §11, §12

[1] = Cell-free kinase assay Erk2-ALPHA; assay type: biochemical, human; settings: cell-free kinase assay; MAPK = Erk2, p38alpha, Jnk1+Jnk2 of Table 1
Method: as §8, §9, §10, §11, §12

PI3Kalpha = target: T3, PI3Kalpha (Homo sapiens, UniProt P42336); assay: Cell-free kinase assay PI3K-ALPHA; assay type: biochemical
T3 construct: purchased Upstate #14-602
Method: as §8, §9, §10, §11, §12

p110alpha H107R = settings: cited from earlier work

T2 sequence (P63085 whole entry): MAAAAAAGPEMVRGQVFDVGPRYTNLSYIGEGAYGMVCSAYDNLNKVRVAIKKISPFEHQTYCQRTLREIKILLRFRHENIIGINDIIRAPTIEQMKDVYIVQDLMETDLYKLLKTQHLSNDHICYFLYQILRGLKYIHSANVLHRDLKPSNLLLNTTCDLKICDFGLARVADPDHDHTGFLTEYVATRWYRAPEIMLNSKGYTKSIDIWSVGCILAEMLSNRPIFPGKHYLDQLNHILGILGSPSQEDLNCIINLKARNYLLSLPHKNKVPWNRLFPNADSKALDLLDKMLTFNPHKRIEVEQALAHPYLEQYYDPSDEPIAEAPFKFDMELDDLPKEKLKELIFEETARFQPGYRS
T3 sequence (P42336 whole entry): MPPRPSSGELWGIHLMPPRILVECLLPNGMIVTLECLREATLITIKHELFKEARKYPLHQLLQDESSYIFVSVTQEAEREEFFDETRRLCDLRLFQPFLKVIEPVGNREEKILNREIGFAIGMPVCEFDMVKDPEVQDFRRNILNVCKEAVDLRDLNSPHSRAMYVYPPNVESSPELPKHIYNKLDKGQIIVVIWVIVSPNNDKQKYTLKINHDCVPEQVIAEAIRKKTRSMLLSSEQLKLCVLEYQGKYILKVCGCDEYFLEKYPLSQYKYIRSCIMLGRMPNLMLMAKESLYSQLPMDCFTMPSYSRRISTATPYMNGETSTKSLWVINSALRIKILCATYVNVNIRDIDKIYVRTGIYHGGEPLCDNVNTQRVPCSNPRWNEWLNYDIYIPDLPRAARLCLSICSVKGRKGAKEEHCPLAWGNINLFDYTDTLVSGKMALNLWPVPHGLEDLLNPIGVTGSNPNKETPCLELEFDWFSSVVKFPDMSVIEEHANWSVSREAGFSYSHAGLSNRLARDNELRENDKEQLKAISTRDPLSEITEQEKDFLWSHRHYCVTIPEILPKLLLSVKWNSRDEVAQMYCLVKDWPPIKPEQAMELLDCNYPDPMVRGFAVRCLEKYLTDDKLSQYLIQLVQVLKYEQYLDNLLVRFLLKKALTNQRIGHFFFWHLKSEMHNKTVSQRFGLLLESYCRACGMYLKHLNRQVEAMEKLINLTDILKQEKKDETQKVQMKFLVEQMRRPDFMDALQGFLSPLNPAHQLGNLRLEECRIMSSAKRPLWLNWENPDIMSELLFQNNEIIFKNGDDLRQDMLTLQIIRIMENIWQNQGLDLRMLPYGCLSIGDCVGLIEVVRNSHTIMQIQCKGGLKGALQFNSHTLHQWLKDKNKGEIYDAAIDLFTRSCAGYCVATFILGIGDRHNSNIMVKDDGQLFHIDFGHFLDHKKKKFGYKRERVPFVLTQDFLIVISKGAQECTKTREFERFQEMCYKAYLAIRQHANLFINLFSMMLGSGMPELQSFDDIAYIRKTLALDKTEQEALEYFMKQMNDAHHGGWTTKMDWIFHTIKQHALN
T3 sequence (P27986 whole entry partner): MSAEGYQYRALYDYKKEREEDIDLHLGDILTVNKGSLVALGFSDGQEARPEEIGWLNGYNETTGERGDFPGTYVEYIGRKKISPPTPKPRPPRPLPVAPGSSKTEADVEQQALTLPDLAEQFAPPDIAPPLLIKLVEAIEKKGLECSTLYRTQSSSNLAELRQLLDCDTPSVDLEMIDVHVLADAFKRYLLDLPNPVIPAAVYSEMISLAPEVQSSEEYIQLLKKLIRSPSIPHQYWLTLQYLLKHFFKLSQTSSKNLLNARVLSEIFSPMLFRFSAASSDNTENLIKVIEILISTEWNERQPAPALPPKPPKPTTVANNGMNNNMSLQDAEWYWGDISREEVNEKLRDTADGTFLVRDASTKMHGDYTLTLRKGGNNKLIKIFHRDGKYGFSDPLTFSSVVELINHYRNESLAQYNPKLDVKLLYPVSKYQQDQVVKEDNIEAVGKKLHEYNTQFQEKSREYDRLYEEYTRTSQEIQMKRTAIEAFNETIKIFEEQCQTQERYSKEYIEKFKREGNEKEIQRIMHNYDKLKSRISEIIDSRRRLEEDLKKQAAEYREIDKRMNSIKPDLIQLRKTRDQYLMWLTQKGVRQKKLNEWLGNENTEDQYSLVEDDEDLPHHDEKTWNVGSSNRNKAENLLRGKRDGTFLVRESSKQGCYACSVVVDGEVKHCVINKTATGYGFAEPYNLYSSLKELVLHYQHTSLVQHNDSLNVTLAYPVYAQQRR
Chain of p38alpha (Q16539 whole entry, the tested form may be a part): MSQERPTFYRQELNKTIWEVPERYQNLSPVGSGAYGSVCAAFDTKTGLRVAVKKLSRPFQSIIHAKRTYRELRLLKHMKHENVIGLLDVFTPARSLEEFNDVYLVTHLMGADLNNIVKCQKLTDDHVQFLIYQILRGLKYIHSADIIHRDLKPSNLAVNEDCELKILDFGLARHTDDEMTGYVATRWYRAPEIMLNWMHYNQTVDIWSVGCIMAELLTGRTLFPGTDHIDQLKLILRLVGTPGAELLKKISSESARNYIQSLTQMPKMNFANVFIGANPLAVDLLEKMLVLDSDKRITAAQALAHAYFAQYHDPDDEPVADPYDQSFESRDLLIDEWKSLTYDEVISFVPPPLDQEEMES

EC50 (MDA-MB468) | IC50 (p38alpha) | melting point | IC50 (Jnk1 + Jnk2) | EC50 (Hct116) | IC50 (Erk2) | Erk2 / MAPK inhibition, in words [1] | PI3K inhibition, in words (PI3Kalpha) | Compound | inhibition at 50 µM (Phospho-p90RSK (S380)) | inhibition of phospho-Rsk / Raf-Mek-Erk pathway, in words (Phospho-p90RSK (S380)) | inhibition at 50 µM (Phospho-Akt (Ser 473)) | inhibition of cellular phospho-Akt / PI3K-Akt pathway, in words (Phospho-Akt (Ser 473)) | IC50 (p110alpha H107R)
< 5 µM | < 10 µM | 270 to 273 °C | > 10 µM | < 10 µM | < 10 µM | no or only moderate MAPK inhibition | PI3K inhibition | CCNC(=O)Nc1ccc2ncc(Nc3cccc(O)c3)nc2n1 [Compound 56, 1-Ethyl-3-[3-(3-hydroxy-phenylamino)-pyrido[2,3-b]pyrazin-6-yl]-urea] | 0% | do not block the Raf-Mek-Erk pathway | 100% | cellular PI3K selectivity | 
< 5 µM | < 10 µM | 243 to 246 °C | > 100 µM | < 5 µM | > 100 µM | no or only moderate MAPK inhibition | PI3K inhibition | CCNC(=O)Nc1ccc2ncc(Nc3ccccc3O)nc2n1 [Compound 55, 1-Ethyl-3-[3-(2-hydroxy-phenylamino)-pyrido[2,3-b]pyrazin-6-yl]-urea] | 0% | do not block the Raf-Mek-Erk pathway | 90% | cellular PI3K selectivity | 

Continued, molecule first:

Compound | EC50 (MDA-MB468) | IC50 (p38alpha) | melting point | IC50 (Jnk1 + Jnk2) | EC50 (Hct116) | IC50 (Erk2) | Erk2 / MAPK inhibition, in words [1] | PI3K inhibition, in words (PI3Kalpha) | inhibition at 50 µM (Phospho-p90RSK (S380)) | inhibition of phospho-Rsk / Raf-Mek-Erk pathway, in words (Phospho-p90RSK (S380)) | inhibition at 50 µM (Phospho-Akt (Ser 473)) | inhibition of cellular phospho-Akt / PI3K-Akt pathway, in words (Phospho-Akt (Ser 473)) | IC50 (p110alpha H107R)
CCNC(=O)Nc1ccc2ncc(Nc3ccc(O)c(C(=O)OC)c3)nc2n1 [Compound 50, 5-[6-(3-Ethyl-ureido)-pyrido[2,3-b]-pyrazin-3-ylamino]-2-hydroxy-benzoic acid methyl ester] | < 10 µM | > 100 µM | 195 to 200 °C | > 100 µM | < 5 µM | > 100 µM | no or only moderate MAPK inhibition | PI3K inhibition | 0% | do not block the Raf-Mek-Erk pathway | 100% | cellular PI3K selectivity | 
CCNC(=O)Nc1ccc2ncc(-c3ccc(OC(C)=O)c(OC)c3)nc2n1 [Compound 54, Acetic acid 4-[6-(3-ethyl-ureido)-pyrido[2,3-b]pyrazin-3-yl]-2-methoxy-phenyl ester] | < 5 µM | > 100 µM | 227 to 229 °C | < 31.6 µM | < 5 µM | < 0.5 µM | inhibition of PI3K and Erk2 | inhibition of PI3K | 90% | inhibit both | 100% | inhibit both | 
Cn1c(=O)n(-c2ccc(C(C)(C)C#N)cc2)c2c3cc(-c4cnc5ccccc5c4)ccc3ncc21 [BEZ-235] |  |  |  |  |  |  |  |  |  |  |  |  | 0.018 µM
